For this assay, the system named is Staphylococcus aureus. Nature of the assay: Antibacterial activity against Staphylococcus aureus ATCC 25923 assessed as growth inhibition after 24 hrs by microdilution method. It counts as functional, organism-based. For orientation: In broth dilution the organism is exposed to a series of concentrations in liquid medium.

IC50 data for 2 molecules are collected here from ChEMBL document CHEMBL3580584, “Antibacterial Balsacones J-M, Hydroxycinnamoylated Dihydrochalcones from Populus balsamifera Buds” (J Nat Prod, 2015).

Turning to `O=C(N[C@H](CO)[C@H](O)c1ccc([N+](=O)[O-])cc1)C(Cl)Cl` [CHLORAMPHENICOL], the IC50 (Staphylococcus aureus, ATCC 25923, 24 h) is 430 nM.
Turning to GENTAMICIN, the IC50 was found to be 10 nM.

A word on the IC50: it is the midpoint of a concentration-inhibition curve.
